The text below walks through data of patent US20150225454A1, “TETRABRANCHED PEPTIDES AND ANALOGUES AS A NEW CLASS OF ANTIMICROBIALS AND THEIR PREPARATION THEREOF” (priority 2012, published 2015).

The pEC50 is −log10 of the EC50, conventionally taken in molar units.

pEC50: −log10 of the molar value. Where a SMILES comes first, the peptide text is derived from it. Bridges are numbered along the chain shown (N, C = ends). Roman numbers before positions name the chains, in order. Where only a bound is given, the exact number is not on record here.

The test concerns IOBA-NHC cells. Type of test: cell-based, human. Particulars: 24 h. Here is the method:
IOBA-NHC cells were cultured under standard conditions (humidified atmosphere of 5% CO2 at 37° C.) in DMEM/F12 supplemented with 1 μg/ml bovine pancreas insulin, 2 ng/ml mouse epidermal growth factor, 0.1 μg/ml cholera toxin, […] hydrocortisone, 10% fetal bovine serum (FBS), 50 UI/ml penicillin, and 50 UI/ml streptomycin. Cells from passages 50-80 were used in all experiments. Every day, normal culture development was observed by phase-contrast microscopy. Cells were removed by gentle trypsin incubation at confluence and counted. They were seeded into 96 well culture plates (Corning, Schiphol-Rijk, The Netherlands) for microtitration analysis of flow cytotoxicity assay (˜10,000 cells/well). Cultures were kept at 37° C. for 24 h. Subconfluent cells (culture surface covering nearly 70%) were then exposed to various peptide concentrations (0.22-225 μM). Cytotoxicity was measured periodically using MultiTox-Fluor Multiplex assay kit (Promega, Wis., USA) by measuring the AFC fluorescence (λex=485 and λem=520 nm).
`C[C@H](NC(=O)[C@H](C)NC(=O)[C@H](CCCCN)NC(=O)[C@H](CCCNC(=N)N)NC(=O)CNC(=O)[C@@H](N)CCCNC(=N)N)C(=O)N[C@@H](CCCNC(=N)N)C(=O)N[C@@H](CCCNC(=N)N)C(=O)NCCCC[C@H](NC(=O)[C@H](CCCNC(=N)N)NC(=O)[C@H](CCCNC(=N)N)NC(=O)[C@H](C)NC(=O)[C@H](C)NC(=O)[C@H](CCCCN)NC(=O)[C@H](CCCNC(=N)N)NC(=O)CNC(=O)[C@@H](N)CCCNC(=N)N)C(=O)NCCCC[C@H](NC(=O)[C@H](CCCCNC(=O)[C@H](CCCNC(=N)N)NC(=O)[C@H](CCCNC(=N)N)NC(=O)[C@H](C)NC(=O)[C@H](C)NC(=O)[C@H](CCCCN)NC(=O)[C@H](CCCNC(=N)N)NC(=O)CNC(=O)[C@@H](N)CCCNC(=N)N)NC(=O)[C@H](CCCNC(=N)N)NC(=O)[C@H](CCCNC(=N)N)NC(=O)[C@H](C)NC(=O)[C@H](C)NC(=O)[C@H](CCCCN)NC(=O)[C@H](CCCNC(=N)N)NC(=O)CNC(=O)[C@@H](N)CCCNC(=N)N)C(=O)N[C@@H](CCCCN)C(=O)O` [[(SEQ ID NO: 13)2K]2KK] (I: H-RGRKAARRKKK-OH / II: H-RGRKAARRK / III: H-RGRKAARR / IV: H-RGRKAARR; amide I:9-IV:C, I:10-II:C, II:9-III:C; N-terminus and C-terminus assumed) gave a negative logarithm of the EC50 (pEC50) of 4.34.
Compound `CC(C)[C@H](NC(=O)[C@H](CCCCN)NC(=O)[C@H](CCCNC(=N)N)NC(=O)[C@H](C)NC(=O)[C@@H](N)CCCNC(=N)N)C(=O)N[C@H](C(=O)N[C@@H](CCCNC(=N)N)C(=O)N[C@@H](CCCNC(=N)N)C(=O)NCCCC[C@H](NC(=O)[C@H](CCCNC(=N)N)NC(=O)[C@H](CCCNC(=N)N)NC(=O)[C@@H](NC(=O)[C@@H](NC(=O)[C@H](CCCCN)NC(=O)[C@H](CCCNC(=N)N)NC(=O)[C@H](C)NC(=O)[C@@H](N)CCCNC(=N)N)C(C)C)C(C)C)C(=O)NCCCC[C@H](NC(=O)[C@H](CCCCNC(=O)[C@H](CCCNC(=N)N)NC(=O)[C@H](CCCNC(=N)N)NC(=O)[C@@H](NC(=O)[C@@H](NC(=O)[C@H](CCCCN)NC(=O)[C@H](CCCNC(=N)N)NC(=O)[C@H](C)NC(=O)[C@@H](N)CCCNC(=N)N)C(C)C)C(C)C)NC(=O)[C@H](CCCNC(=N)N)NC(=O)[C@H](CCCNC(=N)N)NC(=O)[C@@H](NC(=O)[C@@H](NC(=O)[C@H](CCCCN)NC(=O)[C@H](CCCNC(=N)N)NC(=O)[C@H](C)NC(=O)[C@@H](N)CCCNC(=N)N)C(C)C)C(C)C)C(=O)N[C@@H](CCCCN)C(=O)O)C(C)C` [Peptide B4010-G2A] (I: H-RARKVVRRKKK-OH / II: H-RARKVVRRK / III: H-RARKVVRR / IV: H-RARKVVRR; amide I:9-IV:C, I:10-II:C, II:9-III:C) showed a pEC50 of 3.96.
Take `CC(C)[C@H](NC(=O)[C@H](CCCCN)NC(=O)[C@H](CCCNC(=N)N)NC(=O)CNC(=O)[C@@H](N)CCCNC(=N)N)C(=O)N[C@H](C(=O)N[C@@H](C)C(=O)N[C@@H](C)C(=O)NCCCC[C@H](NC(=O)[C@H](C)NC(=O)[C@H](C)NC(=O)[C@@H](NC(=O)[C@@H](NC(=O)[C@H](CCCCN)NC(=O)[C@H](CCCNC(=N)N)NC(=O)CNC(=O)[C@@H](N)CCCNC(=N)N)C(C)C)C(C)C)C(=O)NCCCC[C@H](NC(=O)[C@H](CCCCNC(=O)[C@H](C)NC(=O)[C@H](C)NC(=O)[C@@H](NC(=O)[C@@H](NC(=O)[C@H](CCCCN)NC(=O)[C@H](CCCNC(=N)N)NC(=O)CNC(=O)[C@@H](N)CCCNC(=N)N)C(C)C)C(C)C)NC(=O)[C@H](C)NC(=O)[C@H](C)NC(=O)[C@@H](NC(=O)[C@@H](NC(=O)[C@H](CCCCN)NC(=O)[C@H](CCCNC(=N)N)NC(=O)CNC(=O)[C@@H](N)CCCNC(=N)N)C(C)C)C(C)C)C(=O)N[C@@H](CCCCN)C(=O)O)C(C)C` [[(SEQ ID NO: 11)2K]2KK] (I: H-RGRKVVAAKKK-OH / II: H-RGRKVVAAK / III: H-RGRKVVAA / IV: H-RGRKVVAA; amide I:9-IV:C, I:10-II:C, II:9-III:C; N-terminus and C-terminus assumed): the pEC50 is less than 3.59.
For `CC(C)[C@H](NC(=O)[C@H](C)NC(=O)[C@H](CCCCN)NC(=O)[C@H](CCCNC(=N)N)NC(=O)CNC(=O)[C@@H](N)CCCNC(=N)N)C(=O)N[C@@H](CCCNC(=N)N)C(=O)N[C@@H](CCCNC(=N)N)C(=O)NCCCC[C@H](NC(=O)[C@H](CCCNC(=N)N)NC(=O)[C@H](CCCNC(=N)N)NC(=O)[C@@H](NC(=O)[C@H](C)NC(=O)[C@H](CCCCN)NC(=O)[C@H](CCCNC(=N)N)NC(=O)CNC(=O)[C@@H](N)CCCNC(=N)N)C(C)C)C(=O)NCCCC[C@H](NC(=O)[C@H](CCCCNC(=O)[C@H](CCCNC(=N)N)NC(=O)[C@H](CCCNC(=N)N)NC(=O)[C@@H](NC(=O)[C@H](C)NC(=O)[C@H](CCCCN)NC(=O)[C@H](CCCNC(=N)N)NC(=O)CNC(=O)[C@@H](N)CCCNC(=N)N)C(C)C)NC(=O)[C@H](CCCNC(=N)N)NC(=O)[C@H](CCCNC(=N)N)NC(=O)[C@@H](NC(=O)[C@H](C)NC(=O)[C@H](CCCCN)NC(=O)[C@H](CCCNC(=N)N)NC(=O)CNC(=O)[C@@H](N)CCCNC(=N)N)C(C)C)C(=O)N[C@@H](CCCCN)C(=O)O` [Peptide B4010-V5A] (I: H-RGRKAVRRKKK-OH / II: H-RGRKAVRRK / III: H-RGRKAVRR / IV: H-RGRKAVRR; amide I:9-IV:C, I:10-II:C, II:9-III:C) the value was 3.72; for `CC(C)[C@H](NC(=O)[C@H](CCCCN)NC(=O)[C@H](CCCNC(=N)N)NC(=O)CNC(=O)[C@@H](N)CCCNC(=N)N)C(=O)N[C@@H](C)C(=O)N[C@@H](CCCNC(=N)N)C(=O)N[C@@H](CCCNC(=N)N)C(=O)NCCCC[C@H](NC(=O)[C@H](CCCNC(=N)N)NC(=O)[C@H](CCCNC(=N)N)NC(=O)[C@H](C)NC(=O)[C@@H](NC(=O)[C@H](CCCCN)NC(=O)[C@H](CCCNC(=N)N)NC(=O)CNC(=O)[C@@H](N)CCCNC(=N)N)C(C)C)C(=O)NCCCC[C@H](NC(=O)[C@H](CCCCNC(=O)[C@H](CCCNC(=N)N)NC(=O)[C@H](CCCNC(=N)N)NC(=O)[C@H](C)NC(=O)[C@@H](NC(=O)[C@H](CCCCN)NC(=O)[C@H](CCCNC(=N)N)NC(=O)CNC(=O)[C@@H](N)CCCNC(=N)N)C(C)C)NC(=O)[C@H](CCCNC(=N)N)NC(=O)[C@H](CCCNC(=N)N)NC(=O)[C@H](C)NC(=O)[C@@H](NC(=O)[C@H](CCCCN)NC(=O)[C@H](CCCNC(=N)N)NC(=O)CNC(=O)[C@@H](N)CCCNC(=N)N)C(C)C)C(=O)N[C@@H](CCCCN)C(=O)O` [Peptide B4010-V6A] (I: H-RGRKVARRKKK-OH / II: H-RGRKVARRK / III: H-RGRKVARR / IV: H-RGRKVARR; amide I:9-IV:C, I:10-II:C, II:9-III:C), less than 3.65.
